This passage reports IC50 and neuronal death results from patent US11084814B2, “Pyrido[3, 4-d]pyrimidine derivative and pharmaceutically acceptable salt thereof” (Teijin Pharma Limited, priority 2016, dated 2021).

One experiment concerns the target T1, CDK4/cyclin D3 (Homo sapiens, UniProt P11802).
T1 construct: purchased Carna Biosciences, Inc. QS S Assist CDK4/Cyclin D3_FP Kit
Put plainly: Human CDK4/cyclin D3 inhibitory activity (QS S Assist CDK4/Cyclin D3_FP Kit, IMAP fluorescent polarization). The conditions noted are these: read-out: CDK4 Activity symbol. The format is biochemical. In short, it runs like this:
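Kinase reactions used kit CDK4/cyclin D3 at 12.5–25 ng/well with the kit ATP/substrate/metal mix in 20 mM HEPES (pH 7.4), 0.01% Tween20 and 2 mM DTT, run 45 min at room temperature. Phosphorylation was detected by IMAP fluorescence polarization (ex 485/em 535 nm) after 30 min binding in the dark. IC50 was fitted from percent inhibition against DMSO controls with and without enzyme.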

In the next experiment the target is T2, CDK2/cyclin A2 (Homo sapiens, UniProt P24941).
T2 construct: purchased Carna Biosciences, Inc. QS S Assist CDK2/Cyclin A2_FP Kit
Put plainly: Human CDK2/cyclin A2 inhibitory activity (QS S Assist CDK2/Cyclin A2_FP Kit, IMAP fluorescent polarization). The format is biochemical. The settings on record: read-out: CDK2 Activity symbol. In outline:
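Kit CDK2/cyclin A2 (2.5 ng/well) was reacted with kit ATP/substrate/metal in 20 mM HEPES pH 7.4, 0.01% Tween 20 and 2 mM DTT for 60 min at room temperature. IMAP binding reagent was added for 30 min, then fluorescence polarization was read at 485/535 nm. IC50 came from dose-response fitting of percent inhibition.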

Experiment [1] has as its system neuronal death caused by local ischemia. The conditions noted are these: rat cerebral infarction model; cited from earlier work.

Some results are limits rather than exact numbers.

T1 sequence (P11802 whole entry): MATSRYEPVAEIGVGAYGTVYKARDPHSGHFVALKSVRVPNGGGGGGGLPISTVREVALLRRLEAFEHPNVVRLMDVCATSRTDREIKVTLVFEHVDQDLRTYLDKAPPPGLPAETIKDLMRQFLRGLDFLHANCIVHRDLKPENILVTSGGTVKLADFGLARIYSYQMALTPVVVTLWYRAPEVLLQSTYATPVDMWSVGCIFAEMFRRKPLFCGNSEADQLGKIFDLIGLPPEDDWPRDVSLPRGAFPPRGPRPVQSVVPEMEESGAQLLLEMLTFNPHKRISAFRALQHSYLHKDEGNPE
T1 sequence (P30281 whole entry partner): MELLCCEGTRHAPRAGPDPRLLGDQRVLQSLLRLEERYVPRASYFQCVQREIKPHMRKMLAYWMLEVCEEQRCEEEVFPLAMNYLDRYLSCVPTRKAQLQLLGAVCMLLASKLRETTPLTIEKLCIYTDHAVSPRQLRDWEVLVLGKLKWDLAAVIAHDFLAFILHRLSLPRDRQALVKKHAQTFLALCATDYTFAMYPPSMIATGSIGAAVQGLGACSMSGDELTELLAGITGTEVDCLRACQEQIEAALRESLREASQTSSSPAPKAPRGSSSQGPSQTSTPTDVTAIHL

Turning to `Cc1nc(Nc2ncc3cc([C@@H](C)O)nc(N4CCCCC4)c3n2)ccc1N1CCN(C2CN(C)C2)CC1` [Compound 334], the values for the IC50 at CDK4/cyclin D3 and at CDK2/cyclin A2 were less than 10 nM and no less than 100 nM, respectively.
For `C[C@@H](O)c1cc2cnc(Nc3ccc4c(n3)CCN(C(=O)Cc3ccccn3)C4)nc2c(N2CCCCC2)n1` [Compound 335], in that order: 10 to 100 nM and no less than 100 nM.
The corresponding values for `C[C@@H](O)c1cc2cnc(Nc3ccc4c(n3)CCN(C(=O)Cn3ccnn3)C4)nc2c(N2CCCCC2)n1` [Compound 336] are 10 to 100 nM and no less than 100 nM.
The corresponding values for `C[C@@H](O)c1cc2cnc(Nc3ccc4c(n3)CCN(C(=O)Cn3nccn3)C4)nc2c(N2CCCCC2)n1` [Compound 337] are 10 to 100 nM and no less than 100 nM.
For the compound `CN1CC[C@H](c2c(O)cc(O)c3c(=O)cc(-c4ccccc4Cl)oc23)[C@H](O)C1` [flavopiridol], in experiment [1], the neuronal death result was “reduced”.
